# Key:
# OP50 E. coli = assay: Bacterial growth assay (OD600); assay type: cell-based, Escherichia coli; details: 50 or 100 μg/mL; after 12 hours, 37° C
# Experimental: The effects of test compounds on growth of the OP50 E. coli feed was assayed using optical density at 600 nm (OD600). Using standard microtitre plates, replicate wells of 200 μL of sterile Luria broth were inoculated with 2 μL of an overnight OP50 culture in addition to the stated final concentrations of ampicillin (Amp), Lip-1 and SIH. OD600 measures were taken after 12 hours in an EnSpire (PerkinElmer) spectrophotometric plate reader preset to 37° C., with 30 sec of 200 rpm orbital shaking every 10 minutes.
# Data was averaged across duplicate experiments, each with eight replicate wells per treatment where a baseline of Luria broth without an inoculate was subtracted.
# C. elegans = details: iron chelators, literature reports; cited from earlier work
Compound,growth of OP50 E. coli (OD600) (OP50 E. coli),effect on C. elegans lifespan as reported (C. elegans)
CC1(C)S[C@@H]2[C@H](NC(=O)[C@H](N)c3ccccc3)C(=O)N2[C@H]1C(=O)O [ampicillin],completely suppressed bacterial growth,–
"O=C(O)CN(CCN(CC(=O)O)CC(=O)O)CC(=O)O.[Ca] [CaEDTA, calcium-ethylenediaminetetraacetic acid]",–,minor (undisclosed) increase in lifespan
Cc1c(O)c(=O)ccn1C [deferiprone],–,not to impact C. elegans lifespan

# — patent publication US20230172940A1, “METHODS OF EXTENDING LIFESPAN BY ADMINISTERING FERROPTOSIS INHIBITORS” (COLLABORATIVE MEDICINAL DEVELOPMENT, LLC, priority 2020, published 2023)
